In one data set the target is T1, HIV protease (Human immunodeficiency virus type 1 group M subtype B, UniProt P04585).
T1 construct: HIV protease is diluted in the assay buffer to a final enzyme concentration of 12.3 nanomolar, based on a molecular weight of 10,780
The experiment in a line: HIV protease enzyme assay (fluorescence, substrate 2-Ile-Nle-Phe(p-NO2)-Gln-ArgNH2). It is filed as biochemical. The note with it: Table 21, HIV protease enzyme assay. On the procedure: The enzyme method is described below. […] The positive control is MVT-101 (Miller, M. et al, Science, 246, 1149 (1989)] The assay conditions are as follows:
Assay buffer: 20 mM sodium phosphate, pH 6.4 20% glycerol 1 mM EDTA 1 mM DTT 0.1% CHAPS
The above described substrate is dissolved in DMSO, then diluted 10 fold in assay buffer. Final substrate concentration in the assay is 80 μM.
The final concentration of DMSO is 14% and the final concentration of glycerol is 18%. The test compound is dissolved in DMSO and diluted in DMSO to 10× the test concentration; 10 μl of the enzyme preparation is added, the materials mixed and then the mixture is incubated at ambient temperature for 15 minutes. The enzyme reaction is initiated by the addition of 40 μl of substrate. The increase in fluorescence is monitored at 4 time points (0, 8, 16 and 24 minutes) at ambient temperature. Each assay is carried out in duplicate wells.

A further data set relates to CEM cells. The experiment in a line: Intrinsic toxicity of test compound in uninfected CEM cells (MTT). It is filed as cell-based. To be noted: Table 21. The source says: Methods, 20, 309-321 (1988).
The next data set deals with HIV-1. The experiment in a line: microbe, parasite or virus in culture. The note with it: Human immunodeficiency virus 1, CCRF-CEM, 168 h.

Where two headings read alike, the source gives them in different places.

Results on six molecules are retold here after patent publication USRE43802E1, “α- and β-amino acid hydroxyethylamino sulfonamides useful as retroviral protease inhibitors” (G.D. Searle LLC, priority 1992, dated 2012).

Description for HIV-1: Assays were performed in 96-well tissue culture plates. CEM cells, a CD4^+ cell line, were grown in RPMI-1640 medium (Gibco) supplemented with a 10% fetal calf serum and were then treated with polybrene (2 μg/ml). An 80 μl volume of medium containing 1×10^4 cells was dispensed into each well of the tissue culture plate. To each well was added a 100 μl volume of test compound dissolved in tissue culture medium (or medium without test compound as a control) to achieve the desired final concentration and the cells were incubated at 37° C. for 1 hour. […] Likewise, the intrinsic toxicity of the test compound was determined by adding medium without virus to several wells containing test compound. […]
Following the addition of virus, cells were incubated at 37° C. in a humidified, 5% CO2 atmosphere for 7 days. […] The absorbance at 590 nm was determined for each sample using a Molecular Devices microplate reader. Absorbance values for each set of wells is compared to assess viral control infection, uninfected control cell response as well as test compound by cytotoxicity and antiviral efficacy.

Usually IC50 stands for the concentration needed to halve the response being measured. Regarding `COc1ccc(S(=O)(=O)N(CC(C)C)C[C@@H](O)[C@H](Cc2ccccc2)NC(=O)OC(C)(C)C)cc1` [Example 27], the half-inhibitory concentration (IC50) at HIV protease (read-out: IC50) came out at 5 nM. In the data set with CEM cells, the “TD50 (nM)” value was 300,000 nM.
As a reminder, the EC50 is the concentration at which the effect is half-maximal. Read a low EC50 as higher potency in that assay. On HIV protease (IC50 (nM)), `CNC(=O)C[C@H](NC(=O)c1ccc2ccccc2n1)C(=O)N[C@@H](Cc1ccccc1)[C@H](O)CN(CCC(C)C)S(=O)(=O)c1ccccc1` [Entry 7] gave an IC50 of 3 nM. In the data set on HIV-1, this molecule gave a 50% effective concentration (EC50) of 0.025 µM.
As to `COc1ccc(S(=O)(=O)N(CC(C)C)C[C@@H](O)[C@H](Cc2ccccc2)NC(=O)OCc2ccncc2)cc1` [Example 22], the IC50 on HIV protease (read-out: IC50) worked out at 15 nM. The “TD50 (nM)” value in the data set on CEM cells is on record as 31,000 nM.
By melting point is commonly meant the temperature, or range, at which the solid turns liquid. `COc1ccc(S(=O)(=O)N(CC(C)C)C[C@@H](O)[C@H](Cc2ccccc2)NC(=O)O[C@H]2CCS(=O)(=O)C2)cc1` came in with a melting point of 69 °C.
`COc1ccc(S(=O)(=O)N(CC(C)C)C[C@@H](O)[C@H](Cc2ccccc2)NC(=O)OCc2ccc[n+]([O-])c2)cc1` [Example 25]: on HIV protease (read-out: IC50), the half-maximal inhibitory concentration (IC50) amounted to 60 nM. Further, the “TD50 (nM)” value in the data set with CEM cells is reported as 167,000 nM.
As for `COc1ccc(S(=O)(=O)N(CC(C)C)C[C@@H](O)[C@H](Cc2ccccc2)NC(=O)OCc2cccnc2)cc1` [Example 17], at HIV protease (read-out: IC50), the IC50 amounted to 4 nM. The “TD50 (nM)” value in the data set with CEM cells is reported as 59,000 nM.
